According to patent publication US20090069320A1, “Substituted 4-Amino-Quinazoline Compounds with Metabotropic Glutamate Receptor Regulating Activity and Uses Thereof” (Gruenenthal GmbH, priority 2006, published 2009):

Target: T1, mGluR5 receptor (Sus scrofa, UniProt I3LUI7)
T1 construct: 450 μg of protein from brain homogenate with 5 nM ^3[H]-MPEP; from tissue; host or cells: pig brain halves without medulla, cerebellum and pons
Assay: [3H]-MPEP mGluR5 receptor binding assay (pig brain homogenate)
Conditions: 5 nM [3H]-MPEP; for inhibition at 10 µM: 10 μM compound, read-out: % Inhibition of mGluR5 Receptor (pig) [^3H]-MPEP Bond at 10 μM
Method in brief: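 Radioligand displacement of 5 nM [3H]-MPEP from pig brain homogenate (450 μg protein; medulla, cerebellum and pons removed) in 20 mM Hepes pH 8.0. Compounds were tested at 10 μM, incubated 60 min at room temperature, then filtered and counted by scintillation. Non-specific binding was defined with 10 μM MPEP.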

T1 sequence (I3LUI7 19-1212): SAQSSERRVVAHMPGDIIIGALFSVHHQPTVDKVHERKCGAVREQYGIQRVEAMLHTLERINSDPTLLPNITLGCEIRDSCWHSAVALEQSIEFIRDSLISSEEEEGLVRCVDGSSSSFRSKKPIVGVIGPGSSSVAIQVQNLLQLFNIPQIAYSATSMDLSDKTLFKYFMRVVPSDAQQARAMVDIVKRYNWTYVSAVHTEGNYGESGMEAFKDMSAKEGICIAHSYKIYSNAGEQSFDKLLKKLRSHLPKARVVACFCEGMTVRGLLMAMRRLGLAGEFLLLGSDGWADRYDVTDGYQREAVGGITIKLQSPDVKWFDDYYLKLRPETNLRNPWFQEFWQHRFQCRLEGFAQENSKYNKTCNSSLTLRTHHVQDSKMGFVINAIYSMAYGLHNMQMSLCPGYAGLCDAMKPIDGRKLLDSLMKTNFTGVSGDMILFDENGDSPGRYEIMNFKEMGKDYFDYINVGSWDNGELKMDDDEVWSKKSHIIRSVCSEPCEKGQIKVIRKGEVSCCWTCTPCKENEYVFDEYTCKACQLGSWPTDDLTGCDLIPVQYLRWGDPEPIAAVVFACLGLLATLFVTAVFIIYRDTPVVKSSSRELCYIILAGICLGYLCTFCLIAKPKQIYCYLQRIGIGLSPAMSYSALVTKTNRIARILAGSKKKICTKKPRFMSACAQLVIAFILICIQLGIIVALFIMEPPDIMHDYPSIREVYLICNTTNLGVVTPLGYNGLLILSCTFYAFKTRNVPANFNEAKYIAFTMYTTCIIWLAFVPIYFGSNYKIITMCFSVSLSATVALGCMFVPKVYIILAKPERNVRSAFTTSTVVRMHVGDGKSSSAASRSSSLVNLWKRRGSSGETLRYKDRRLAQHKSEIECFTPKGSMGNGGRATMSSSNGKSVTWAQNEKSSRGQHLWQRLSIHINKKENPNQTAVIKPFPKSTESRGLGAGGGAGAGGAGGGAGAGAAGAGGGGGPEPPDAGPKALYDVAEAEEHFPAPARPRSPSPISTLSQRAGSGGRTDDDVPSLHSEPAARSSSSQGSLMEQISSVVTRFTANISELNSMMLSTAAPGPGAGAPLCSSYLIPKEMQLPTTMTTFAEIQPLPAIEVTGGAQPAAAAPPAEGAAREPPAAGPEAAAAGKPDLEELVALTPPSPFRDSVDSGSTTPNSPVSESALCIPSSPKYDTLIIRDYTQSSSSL

Compound: O=C(c1cccc(C(F)(F)F)c1)N(Cc1cc(-c2ccc3ncnc(NC4CC4)c3c2)ccc1F)C1CC1 [Example 405, N-cyclopropyl-N-(5-(4-(cyclopropylamino)quinazolin-6-yl)-2-fluorobenzyl)-3-(trifluoromethyl)benzamide]
- inhibition at 10 µM: 77%

Compound: O=C(Cc1ccccc1)N(Cc1cc(-c2ccc3ncnc(NC4CC4)c3c2)ccc1F)C1CC1 [Example 406, N-cyclopropyl-N-(5-(4-(cyclopropylamino)quinazolin-6-yl)-2-fluorobenzyl)-2-phenylacetamide]
- inhibition at 10 µM: 95%

Compound: O=S(=O)(c1cccs1)N(Cc1cc(-c2ccc3ncnc(NC4CC4)c3c2)ccc1F)C1CC1 [Example 407, N-cyclopropyl-N-(5-(4-(cyclopropylamino)quinazolin-6-yl)-2-fluorobenzyl)thiophene-2-sulfonamide]
- inhibition at 10 µM: 92%

Compound: CCCCC(=O)N(Cc1cccc(-c2ccc3ncnc(NCCc4ccccc4)c3c2)c1)C1CC1 [Example 409, N-cyclopropyl-N-(3-(4-(phenethylamino)quinazolin-6-yl)benzyl)pentanamide]
- inhibition at 10 µM: 32%

Compound: Cc1cccc(CNc2ncnc3ccc(-c4cccc(CN(C(=O)c5cccnc5)C5CC5)c4)cc23)c1 [Example 411, N-cyclopropyl-N-(3-(4-(3-methylbenzylamino)quinazolin-6-yl)benzyl)nicotinamide]
- inhibition at 10 µM: 34%

Compound: O=C(c1ccccc1C(F)(F)F)N(Cc1cc(-c2ccc3ncnc(NC4CC4)c3c2)ccc1F)C1CC1 [Example 413, N-cyclopropyl-N-(5-(4-(cyclopropylamino)quinazolin-6-yl)-2-fluorobenzyl)-2-(trifluoromethyl)benzamide]
- inhibition at 10 µM: 89%

Compound: O=C(CCc1ccccc1)N(Cc1cc(-c2ccc3ncnc(NC4CC4)c3c2)ccc1F)C1CC1 [Example 414, N-cyclopropyl-N-(5-(4-(cyclopropylamino)quinazolin-6-yl)-2-fluorobenzyl)-3-phenylpropanamide]
- inhibition at 10 µM: 93%

Compound: O=S(=O)(c1cccc2cccnc12)N(Cc1cc(-c2ccc3ncnc(NC4CC4)c3c2)ccc1F)C1CC1 [Example 415, N-cyclopropyl-N-(5-(4-(cyclopropylamino)quinazolin-6-yl)-2-fluorobenzyl)quinoline-8-sulfonamide]
- inhibition at 10 µM: 53%

Compound: CN(C)CC(=O)N(Cc1cccc(-c2ccc3ncnc(NCCc4ccccc4)c3c2)c1)C1CC1 [Example 417, N-cyclopropyl-2-(dimethylamino)-N-(3-(4-(phenethylamino)quinazolin-6-yl)benzyl)acetamide]
- inhibition at 10 µM: 60%

Compound: CC(=O)N(Cc1cccc(-c2ccc3ncnc(NCc4cccc(C)c4)c3c2)c1)C1CC1 [Example 419, N-cyclopropyl-N-(3-(4-(3-methylbenzylamino)quinazolin-6-yl)benzyl)acetamide]
- inhibition at 10 µM: 76%

Compound: CN(c1ncnc2ccc(-c3ccc(F)c(CN(C(=O)c4ccco4)C4CC4)c3)cc12)C1CC1 [Example 420, N-cyclopropyl-N-(5-(4-(cyclopropyl(methyl)amino)quinazolin-6-yl)-2-fluorobenzyl)furan-2-carboxamide]
- inhibition at 10 µM: 94%

Compound: O=C(c1cc(Cl)cc(Cl)c1)N(Cc1cc(-c2ccc3ncnc(NC4CC4)c3c2)ccc1F)C1CC1 [Example 421, 3,5-dichloro-N-cyclopropyl-N-(5-(4-(cyclopropylamino)quinazolin-6-yl)-2-fluorobenzyl)benzamide]
- inhibition at 10 µM: 81%

Compound: CN(c1ncnc2ccc(-c3ccc(F)c(CN(C(=O)c4cccs4)C4CC4)c3)cc12)C1CC1 [Example 427, N-cyclopropyl-N-(5-(4-(cyclopropyl(methyl)amino)quinazolin-6-yl)-2-fluorobenzyl)thiophene-2-carboxamide]
- inhibition at 10 µM: 95%

Compound: O=C(c1ccccn1)N(Cc1cc(-c2ccc3ncnc(NC4CC4)c3c2)ccc1F)C1CC1 [Example 428, N-cyclopropyl-N-(5-(4-(cyclopropylamino)quinazolin-6-yl)-2-fluorobenzyl)picolinamide]
- inhibition at 10 µM: 96%

Compound: CC(C)S(=O)(=O)N(Cc1cc(-c2ccc3ncnc(NC4CC4)c3c2)ccc1F)C1CC1 [Example 429, N-cyclopropyl-N-(5-(4-(cyclopropylamino)quinazolin-6-yl)-2-fluorobenzyl)propane-2-sulfonamide]
- inhibition at 10 µM: 92%

Compound: COCC(=O)N(Cc1cccc(-c2ccc3ncnc(NCc4cccc(C)c4)c3c2)c1)C1CC1 [Example 434, N-cyclopropyl-2-methoxy-N-(3-(4-(3-methylbenzylamino)quinazolin-6-yl)benzyl)acetamide]
- inhibition at 10 µM: 62%

Compound: Cc1cc(C(=O)N(Cc2cc(-c3ccc4ncnc(NC5CC5)c4c3)ccc2F)C2CC2)n(C)n1 [Example 435, N-cyclopropyl-N-(5-(4-(cyclopropylamino)quinazolin-6-yl)-2-fluorobenzyl)-1,3-dimethyl-1H-pyrazole-5-carboxamide]
- inhibition at 10 µM: 87%

Compound: O=C(c1ccncc1)N(Cc1cc(-c2ccc3ncnc(NC4CC4)c3c2)ccc1F)C1CC1 [Example 436, N-cyclopropyl-N-(5-(4-(cyclopropylamino)quinazolin-6-yl)-2-fluorobenzyl)isonicotinamide]
- inhibition at 10 µM: 98%

Compound: O=S(=O)(Cc1ccccc1)N(Cc1cc(-c2ccc3ncnc(NC4CC4)c3c2)ccc1F)C1CC1 [Example 437, N-cyclopropyl-N-(5-(4-(cyclopropylamino)quinazolin-6-yl)-2-fluorobenzyl)-1-phenylmethane sulfonamide]
- inhibition at 10 µM: 90%

Compound: CS(=O)(=O)N(Cc1cccc(-c2ccc3ncnc(NCCc4ccccc4)c3c2)c1)C1CC1 [Example 440, N-cyclopropyl-N-(3-(4-(phenethylamino)quinazolin-6-yl)benzyl)methane sulfonamide]
- inhibition at 10 µM: 73%

Compound: Cc1nc(NC2CC2)c2cc(-c3cccc(CN(C(=O)c4c(F)c(F)c(F)c(F)c4F)C4CC4)c3)ccc2n1 [Example 447, N-cyclopropyl-N-(3-(4-(cyclopropylamino)-2-methylquinazolin-6-yl)benzyl)-2,3,4,5,6-pentafluorobenzamide]
- inhibition at 10 µM: 85%

Compound: O=C(C1CCCCC1)N(Cc1cc(-c2ccc3ncnc(NC4CC4)c3c2)ccc1F)C1CC1 [Example 452, N-cyclopropyl-N-(5-(4-(cyclopropylamino)quinazolin-6-yl)-2-fluorobenzyl)cyclohexane carboxamide]
- inhibition at 10 µM: 71%

Compound: Cc1nc(NC2CC2)c2cc(-c3cccc(CN(C(=O)c4ccc(C(F)(F)F)cc4F)C4CC4)c3)ccc2n1 [Example 454, N-cyclopropyl-N-(3-(4-(cyclopropylamino)-2-methylquinazolin-6-yl)benzyl)-2-fluoro-4-(trifluoromethyl)benzamide]
- inhibition at 10 µM: 34%

Compound: O=C(c1ccno1)N(Cc1cc(-c2ccc3ncnc(NC4CC4)c3c2)ccc1F)C1CC1 [Example 457, N-cyclopropyl-N-(5-(4-(cyclopropylamino)quinazolin-6-yl)-2-fluorobenzyl)isoxazole-5-carboxamide]
- IC50 (read-out: IC50 mGluR5 Receptor (pig) [^3H]-MPEP Bond): 210 nM

Compound: Cc1nc(NC2CC2)c2cc(-c3cccc(CN(C(=O)c4cccc(C(F)(F)F)c4)C4CC4)c3)ccc2n1 [Example 462, N-cyclopropyl-N-(3-(4-(cyclopropylamino)-2-methylquinazolin-6-yl)benzyl)-3-(trifluoromethyl)benzamide]
- inhibition at 10 µM: 48%

Compound: Cc1nc(NC2CC2)c2cc(-c3ccc(F)c(CN(C(=O)c4ccccc4C(F)(F)F)C4CC4)c3)ccc2n1 [Example 470, N-cyclopropyl-N-(5-(4-(cyclopropylamino)-2-methylquinazolin-6-yl)-2-fluorobenzyl)-2-(trifluoromethyl)benzamide]
- inhibition at 10 µM: 93%

Compound: CC(C)S(=O)(=O)N(C)Cc1cc(-c2ccc3ncnc(NCc4ccccc4)c3c2)ccc1F [Example 484, N-(5-(4-(benzylamino)quinazolin-6-yl)-2-fluorobenzyl)-N-methylpropane-2-sulfonamide]
- inhibition at 10 µM: 63%

Compound: Cc1cc(C(=O)N(Cc2cccc(-c3ccc4nc(C)nc(NC5CC5)c4c3)c2)C2CC2)n(C)n1 [Example 485, N-cyclopropyl-N-(3-(4-(cyclopropylamino)-2-methylquinazolin-6-yl)benzyl)-1,3-dimethyl-1H-pyrazole-5-carboxamide]
- inhibition at 10 µM: 32%

Compound: Cc1nc(NC2CC2)c2cc(-c3cccc(CN(C(=O)c4cccc(F)c4)C4CC4)c3)ccc2n1 [Example 509, N-cyclopropyl-N-(3-(4-(cyclopropylamino)-2-methylquinazolin-6-yl)benzyl)-3-fluorobenzamide]
- inhibition at 10 µM: 31%

Compound: Cc1nc(NC2CC2)c2cc(-c3cccc(CN(C(=O)c4ccc(F)cc4F)C4CC4)c3)ccc2n1 [Example 517, N-cyclopropyl-N-(3-(4-(cyclopropylamino)-2-methylquinazolin-6-yl)benzyl)-2,4-difluorobenzamide]
- inhibition at 10 µM: 59%

Compound: CCCCC(=O)N(Cc1cccc(-c2ccc3nc(C)nc(NC4CC4)c3c2)c1)C1CC1 [Example 519, N-cyclopropyl-N-(3-(4-(cyclopropylamino)-2-methylquinazolin-6-yl)benzyl)pentanamide]
- inhibition at 10 µM: 76%

Compound: Cc1nc(NC2CC2)c2cc(-c3ccc(F)c(CN(C(=O)c4ccc(F)cc4F)C4CC4)c3)ccc2n1 [Example 524, N-cyclopropyl-N-(5-(4-(cyclopropylamino)-2-methylquinazolin-6-yl)-2-fluorobenzyl)-2,4-difluorobenzamide]
- inhibition at 10 µM: 85%

Compound: Cc1nc(NC2CC2)c2cc(-c3ccc(F)c(CN(C(=O)c4ccc(C(F)(F)F)cc4F)C4CC4)c3)ccc2n1 [Example 532, N-cyclopropyl-N-(5-(4-(cyclopropylamino)-2-methylquinazolin-6-yl)-2-fluorobenzyl)-2-fluoro-4-(trifluoromethyl)benzamide]
- inhibition at 10 µM: 61%

Compound: CCCCC(=O)N(Cc1cc(-c2ccc3nc(C)nc(NC4CC4)c3c2)ccc1F)C1CC1 [Example 540, N-cyclopropyl-N-(5-(4-(cyclopropylamino)-2-methylquinazolin-6-yl)-2-fluorobenzyl)pentanamide]
- inhibition at 10 µM: 91%
